Reference: US20240207457A1, “CANCER-SPECIFIC POLYPEPTIDE AND USE THEREOF” (THE CATHOLIC UNIVERSITY OF KOREA INDUSTRY-ACADEMIC …, priority 2021, published 2024)
Where no end group is shown, it is not given here.

Legend:
MKN45 cells [1] = assay: ROS detection by DCF-DA staining; assay type: cell-based; settings: Ce6-peptide with laser irradiation, FIG. 9
Protocol: To confirm whether cells were killed by photodynamic therapy, DCF-DA staining was performed to check whether cell death, the mechanism of the corresponding treatment, was caused by reactive oxygen species (ROS).

MKN45 cells [2] = assay: Photodynamic therapy cytotoxicity with laser irradiation; assay type: cell-based; settings: laser 10 J, 500 mW, 3 cm, 2 minutes 35 seconds
Protocol: To analyze cytotoxicity through photodynamic therapy, MKN45 cells were treated with Ce6 and the Ce6-peptide at concentrations of 0, 1, 5, 10, 20, 50, 100 nM, and 1 μM and then irradiated with a laser beam based on 10 J, 500 mW, and 3 cm for 2 minutes and 35 seconds.

[3] = tested on: AGS, MKN45, and MKN28 gastric cancer cell lines and CCD841 normal cells; assay: Cellular uptake of Ce6-peptide; assay type: cell-based; settings: 10 uM; FIG. 7
Protocol: (§1) To confirm the tumor-targeting and therapeutic efficacies of the peptide, photodynamic therapy using chlorin e6 (Ce6), a photosensitizer, was performed. First, to confirm the degree of cellular uptake of Ce6-peptide, AGS, MKN45, and MKN28, gastric cancer cell lines, and CCD841 cells, normal cells, were each independently treated with the Ce6-peptide at a concentration of 10 uM.

MKN45 cells [4] = assay: Dark toxicity experiment without laser irradiation; assay type: cell-based; settings: for dark toxicity: 0 to 100 nM and 1 μM, FIGS. 8A and 8B
Protocol: To analyze cytotoxicity through photodynamic therapy, MKN45 cells were treated with Ce6 and the Ce6-peptide at concentrations of 0, 1, 5, 10, 20, 50, 100 nM, […]

[5] = tested on: MKN45 xenograft mouse model; assay: Local tumor treatment efficacy through peptide and laser irradiation; assay type: in vivo, mice; settings: for body weight during the treatment period: laser 200 J
Protocol: To confirm local tumor treatment efficacy using the peptide, an experiment was performed by dividing the mice in Example 6 into four groups: an untreated group, a group irradiated with a laser beam, a group irradiated with a laser beam after Ce6 administration, and a group irradiated with a laser beam after Ce6-peptide administration. Ce6 and the Ce6-peptide were administered at a concentration of 5 mg/kg into the tail vein. When 4 hours elapsed, the tumor area was irradiated with a laser beam for 9 minutes under conditions based on 200 J and 300 mW.

[6] = tested on: MKN45 xenograft mouse model; assay: Ex vivo tumor-targeting analysis of extracted organs (IVIS); assay type: in vivo, mice; settings: organs extracted 4 hours after injection, 5 mg/kg
Protocol: To confirm the tumor-targeting ability of Ce6-peptide, an in vivo targeting experiment was performed on an MKN45 xenograft mouse model. Ce6 and the Ce6-peptide were injected at a concentration of 5 mg/kg into the tail vein of mice in which a tumor with a diameter of about 8 mm was developed. After 4 hours, the concentration of Ce6 in the tumor was confirmed using an in vivo imaging system (IVIS).
In addition, organs were extracted from each subject 4 hours after the injection to analyze tumor-targeting ability ex vivo using an IVIS.

[7] = tested on: MKN45 intraperitoneal metastasis model; assay: Peptide targeting ability in intraperitoneal metastasis model (IVIS); assay type: in vivo, Balb/c nude mice; settings: 5 mg/kg
Protocol: Through Example 6, the targeting ability in vivo of the peptide was confirmed in the xenograft model using MKN45, the gastric cancer cell line. Accordingly, to further verify the targeting ability in an intraperitoneal metastasis model, the same MKN45 cell line was injected intraperitoneally, and the targeting ability of the peptide was further verified.
Intraperitoneal metastasis was confirmed within two weeks by injecting 1×10^7 of the GFP-tagged MKN45 cell line into 5-week-old Balb/c nude mice. As a result, as shown in FIGS. 14A and 14B, additional infiltration of the cells into the liver, kidney, and spleen tissues and large tumors with a size of about 2 cm were observed.
To confirm the targeting ability of the peptide, modeled mice with intraperitoneal metastasis were treated with Ce6 and the Ce6-peptide at a concentration of 5 mg/kg and autopsied 4 hours after the treatment to confirm the concentration of the substance in the tissues using an IVIS.

MKN45 xenograft model = assay: Targeting ability in vivo of Cy5.5-binding peptide; set-up: species or system mice; settings: FIGS. 6A and 6B
Protocol: Through Examples 1 to 3, the gastric cancer-targeting ability of the peptide was confirmed at the cellular level. Accordingly, to confirm the targeting ability in vivo, a xenograft model was created using MKN45 in 5-week-old immunodeficient mice. Then, Cy5.5-binding peptide was injected at a concentration of 50 nM into the tail vein.

[8] = tested on: MKN45 gastric cancer cells vs CCD841 normal cells; assay: FITC fluorescence density by flow cytometer; assay type: cell-based; settings: 25, 50, and 100 µM for 1 hour, FIGS. 5A and 5B
Protocol: In addition, after treating each of the CCD841 cells and the MKN45 cells with FITC-peptide at a concentration of 25, 50, and 100 µM for 1 hour, the FITC fluorescence density was measured using a flow cytometer.

[9] = tested on: CCD841 cells and MKN45 cells; assay: Fluorescence density saturation of FITC-peptide; assay type: cell-based; settings: FIG. 4
Protocol: To confirm the maximum fluorescence absorption capacity of FITC-peptide, CCD841 cells and MKN45 cells were attached to each 8-well chamber. Then, the chamber was treated with the peptide at concentrations of 1, 10, 25, 50, 100, 200, 400, and 800 uM.

[10] = tested on: HEK293T kidney cells not containing the LGR5 receptor; assay: Immunochemical staining of FITC-peptide in HEK293T cells; assay type: cell-based; settings: bound to FITC, FIG. 3
Excerpt: (§2) To confirm the attachment abilities, phage No. 24 and the peptide were each independently bound to FITC to perform immunochemical staining.

tumor tissue = assay: Tumor tissue treated with FITC-bound target and negative control peptide; settings: peptides binding to FITC; FIG. 13
Protocol: To confirm the tumor-targeting ability of the target peptide, the tumor tissue was treated with both the target peptide and a negative control peptide, not having the attachment ability to tumors, binding to FITC. The negative control peptide is a peptide made by randomly mixing the amino acid positions of the […] peptide sequence “QLMRPPV” (SEQ ID NO: 2).

[11] = tested on: AGS, MKN45, and MKN28, the gastric cancer cell lines (vs CCD841 normal colonic epithelial cell line); assay: Immunochemical staining of FITC-bound phage and peptide (attachment ability); assay type: cell-based; settings: bound to FITC, FIG. 2
Excerpt: as §2

[12] = biological target: T1, LGR5 protein on gastric cancer cell lines (AGS, MKN45, MKN28) (UniProt O75473 22-907, limits assumed); assay: cell fluorescence after 10 uM Ce6-peptide on AGS, MKN45 and MKN28 versus CCD841 cells
T1 construct: whole, on cells; also called LGR5 receptor; gastric cancer cell lines containing LGR5
T1 sequence (looked up): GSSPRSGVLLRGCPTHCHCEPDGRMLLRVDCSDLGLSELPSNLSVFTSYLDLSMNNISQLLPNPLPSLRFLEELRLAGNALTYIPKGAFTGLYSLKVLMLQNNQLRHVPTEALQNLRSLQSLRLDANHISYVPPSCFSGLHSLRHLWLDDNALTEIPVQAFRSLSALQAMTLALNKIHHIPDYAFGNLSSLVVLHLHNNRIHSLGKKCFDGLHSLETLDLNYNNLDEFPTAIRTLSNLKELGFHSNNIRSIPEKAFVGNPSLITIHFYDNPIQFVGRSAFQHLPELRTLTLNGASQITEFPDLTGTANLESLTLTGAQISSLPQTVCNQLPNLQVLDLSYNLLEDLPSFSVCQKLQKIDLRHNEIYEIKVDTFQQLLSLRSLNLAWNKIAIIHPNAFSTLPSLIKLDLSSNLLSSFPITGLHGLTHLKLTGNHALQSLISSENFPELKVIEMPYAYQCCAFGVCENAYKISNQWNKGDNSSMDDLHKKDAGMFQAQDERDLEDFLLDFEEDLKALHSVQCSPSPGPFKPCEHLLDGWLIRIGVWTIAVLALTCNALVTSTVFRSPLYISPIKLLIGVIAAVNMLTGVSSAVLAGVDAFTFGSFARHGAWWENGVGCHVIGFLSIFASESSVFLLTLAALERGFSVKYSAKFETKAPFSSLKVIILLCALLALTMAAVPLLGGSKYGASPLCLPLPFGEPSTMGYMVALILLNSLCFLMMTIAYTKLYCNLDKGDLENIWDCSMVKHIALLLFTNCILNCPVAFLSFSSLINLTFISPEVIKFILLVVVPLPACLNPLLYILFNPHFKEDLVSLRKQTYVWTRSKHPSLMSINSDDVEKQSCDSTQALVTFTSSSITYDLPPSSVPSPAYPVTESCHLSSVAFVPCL
Protocol: as §1

[13] = 5 mg/kg tail vein, 300 mW, 9 minutes
[14] = injected at 50 nM into the tail vein

For `OO` [hydrogen peroxide, reference compound], the ROS detection (MKN45 cells [1]) was “ROS was detected”.

“Ce6-peptide: peptide of SEQ ID NO: 1 bound to chlorin e6 (Ce6), a photosensitizer (STCTRSR; also: bound to chlorin e6 (site not given here))” was tested, and the “concentration from which cells were rapidly killed” value (MKN45 cells [2]) was at least 50 nM, the “fluorescence density, gastric cancer cell lines compared with normal cell line” value [3] was “higher” and the dark toxicity (MKN45 cells [4]) was “significant toxicity was not induced”. For the same molecule, the cells killed (MKN45 cells [4]; 1 μM) was 60%, the “body weight during the treatment period” value [5, 13] was “No change in body weight was observed” and the “time after the treatment at which tumor necrosis was observed” value ([5]; 5 mg/kg tail vein, laser after 4 hours, 200 J, 300 mW, 9 minutes) was 2 days. The “tumor size compared with the other groups” value ([5]; on the 7th day, 5 mg/kg plus laser, FIGS. 12A and 12B) was “significantly reduced”, the “tumor-targeting ability ex vivo compared with Ce6 alone” value [6] was “significantly better” and the “concentration in the kidney” value ([7]; 4 hours after the treatment) was “high concentration in the kidney”. For the same molecule, the “excretion from the body compared with Ce6 alone” value ([7]; 4 hours after the treatment) was “more likely to be excreted from the body”, the “non-specific binding to other organs compared with Ce6 alone” value ([7]; 4 hours after the treatment) was “less likely to non-specifically bind to other organs” and the “tumor-targeting ability compared with Ce6 alone” value ([7]; autopsied 4 hours after the treatment, FIGS. 15A and 15B) was “better”. For the same molecule, the ROS detection (MKN45 cells [1]) was “detected in a concentration-dependent manner”.

“Cy5.5-binding peptide: peptide of SEQ ID NO: 1 bound to Cy5.5, a fluorescent material (STCTRSR; also: bound to Cy5.5 (site not given here))” was tested, and the “tumor-targeting ability compared with the control peptide group” value (MKN45 xenograft model) was “further better tumor-targeting ability”, the “fluorescence density in the tumor tissue” value (MKN45 xenograft model; [14]) was “significantly high fluorescence density” and the “fluorescence in other organs (heart, lung, liver, spleen, kidney)” value (MKN45 xenograft model; [14]) was “poorly detected”.

“FITC-peptide: peptide of SEQ ID NO: 1 bound to FITC, a fluorescent material (STCTRSR; also: bound to FITC (site not given here))” was tested, and the “FITC fluorescence density value, MKN45 compared with CCD841” value [8] was “increased in a concentration-dependent manner”, the “concentration from which fluorescence density was saturated in all cells” value ([9]; CCD841 and MKN45 cells) was at least 100 UM and the “concentration at which the difference in fluorescence density values between CCD841 and MKN45 cells was the largest” value ([9]; treated at 1 to 800 uM) was 25 UM.

In the case of STCTRSR (LGR5-targeting peptide), the “attachment ability in HEK293T kidney cells” value [10] is reported as “not able to be confirmed”, the “fluorescence based on FITC attachment to tumor tissue” value (tumor tissue) is reported as “significantly high” and the “attachment ability, gastric cancer cell lines compared with CCD841” value ([11]; AGS, MKN45, MKN28 vs CCD841 normal colonic epithelial cell line) is reported as “better”. For the same molecule, the “attachment ability in the MKN45 cell line” value ([11]; MKN45) was “significantly good”.

chlorin e6 [Ce6, reference compound] was tested, and the “cell killing with laser irradiation” value (MKN45 cells [2]) was “cells were not killed”, the dark toxicity (MKN45 cells [4]) was “significant toxicity was not induced” and the “body weight during the treatment period” value [5, 13] was “No change in body weight was observed”. The “infiltration into the tumor compared with other organs (heart, lung, liver, spleen, kidney)” value ([6]; FIGS. 11A and 11B) was “more infiltrated into the tumor than into other organs”.

“negative control peptide: peptide made by randomly mixing the amino acid positions of the non-specific binding peptide sequence QLMRPPV (SEQ ID NO: 2); bound to FITC (also: bound to FITC (site not given here)) [reference compound]” was tested, and the “fluorescence based on FITC attachment to tumor tissue” value (tumor tissue) was “not confirmed”.

B1: Ce6-peptide (STCTRSR peptide of SEQ ID NO: 1 bound to chlorin e6) (peptide)
peptide: STCTRSR
modifications: also: chlorin e6 bound to the peptide (site not given here)
notes: also called photosensitizer-peptide composite
For B1, the “fold difference in uptake (fluorescence density), gastric cancer cell lines versus normal CCD841 cells” value [12] was at least 11 times.
